“And” between values parts separate entries of the source, which are not always exact repeats. Identical values can stand only once. Like-named read-outs stand apart in the source and are kept apart here.
Columns and labels:
FimH-CRD = target: T1, FimH-CRD (Escherichia coli, UniProt P08191); assay: Competitive binding assay by fluorescence polarization, assay 1 (compounds prepared by manual dilution); set-up: species or system E. coli
T1 construct: The first 177 amino acids of the FimH protein are expressed as a fusion protein; thrombin tag (printed as 'fusion protein with thrombin') (cleaved yes); made in house; host or cells: bacteria (pET21b plasmid)
T1 sequence (P08191 22-177): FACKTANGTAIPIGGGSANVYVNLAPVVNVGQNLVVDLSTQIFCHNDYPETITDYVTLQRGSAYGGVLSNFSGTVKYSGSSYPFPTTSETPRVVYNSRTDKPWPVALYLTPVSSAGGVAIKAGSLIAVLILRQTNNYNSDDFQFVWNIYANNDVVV
Experimental: The first 177 amino acids of the FimH protein are expressed as a fusion protein with thrombin in a pET21b plasmid in bacteria. This FimH protein sequence contains the carbohydrate recognition domain (CRD) and shall be termed FimH-CRD. Following bacterial expression of the protein, the FimH-CRD protein is purified to homogeneity and the thrombin tag removed by protease cleavage. A competitive binding assay by fluorescence polarization is performed using 5 nM of the Alexa 647 mannoside probe and 60 nM of the FimH-CRD. The samples are assayed in a low volume 384 well microtiter plate in a final volume of 20 μl. The final assay buffer conditions are the following, 50 mM Tris-Cl, ph 7.0, 100 mM NaCl, 1 mM EDTA, 5 mM β-mercaptoethanol, 0.05% BSA and 2.5% DMSO. Two assays are performed for FimH, termed assay 1 or assay 2. The assay conditions are the same for both assays except the following: assay 1 has compounds prepared by manual dilution in a serial dilution factor with 12-point dose response while assay 2 has compounds prepared by a robotics system also through a serial dilution factor (12 point dose response) and initially prepared in duplicate in 384 well-Corning polypropylene round bottom plates. The assay 2 plates have compound which is then frozen and must be thawed prior to use. Initially the Alexa 647 probe and the FimH-CRD are added to the assay buffer and then 0.5 μl of test compound (assay 1 or 2) between 0.4 nM to 75 μM final concentration are added (12 point titration with 3-fold serial dilution). Control wells for the Alexa 647 probe are prepared with the same conditions except for the addition of the FimH-CRD protein. Plates are then incubated for 5 hrs at room temperature in the dark and under humid conditions to prevent drying. Plates are read using the SpectraMax Paradigm multi-mode plate reader and the appropriate fluorescent polarization detection cartridge (Alexa-647).
Alexa 647 mannoside probe is prepared using the similar procedure reported for FAM mannoside (Han, Z. et. al., 2010, J. Med. Chem., 53, 4779) and is described in the scheme below.
To a blue colored stirred solution of (2S,3S,4S,5S,6R)-2-(4-aminobutoxy)-6-(hydroxymethyl)tetrahydropyran-3,4,5-triol (2.21 mg, 0.009 mmol) and the (2E)-2-[(2E,4E)-5-[3,3-dimethyl-5-sulfonato-1-(3-sulfonatopropyl)indol-1-ium-2-yl]penta-2,4-dienylidene]-3-[6-(2,5-dioxopyrrolidin-1-yl)oxy-6-oxo-hexyl]-3-methyl-1-(3-sulfonatopropyl)indoline-5-sulfonate (Potassium Ion (3)) (4.9 mg, 0.0044 mmol) in DMF (44 μL) is added Et3N (5.4 mg, 7.0 μL, 0.053 mmol) at RT. The solution is stirred at room temperature over night, concentrated, dissolved in water and purified on 12 g C-18 silica gel cartridge on Isolera system using acetonitrile in water (0 to 40%, 10 CV) and followed by lyophilization to afford Alexa 647 mannoside probe (3.3 mg, 34%) as deep blue solid.
The Kd values of the compounds are determined from dose response curves using twelve concentrations per compound in duplicate. Curves are fitted to data points using Fluorescence Polarization competitive displacement analysis, and Kds are interpolated from the resulting curves using GraphPad Prism software, version […] (GraphPad software Inc., San Diego, Calif., USA).

[1] = tested on: bacterial strain LF82 binding to the glycoprotein BSA-(Mannose)3; assay: Bacterial Binding Assay (BBA); format: cell-based, Escherichia coli; conditions: read-out: Bacterial Binding Assay IC50, LF82/Luciferase strain binding to BSA-(Man)3 coated plates, luminescence
Procedure, shortened: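 Inhibition of LF82/luciferase E. coli adhesion is read as luminescence after washing off unbound cells. Compound and bacteria (10^7 per well) are co-incubated 40-75 min at room temperature on wells coated with 0.5-2 μg/mL BSA-(Man)3, with BSA-only wells as background; IC50 values derived.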

[2] = Assay 1 Kd, 5 nM Alexa 647 mannoside probe, 60 nM FimH-CRD, replicate values in one cell
[3] = read-out: Assay 1 Kd, 5 nM Alexa 647 mannoside probe, 60 nM FimH-CRD, replicate values in one cell

Q: With `OC[C@H]1O[C@H](c2ccc(-c3cn([C@H]4O[C@H](CO)[C@@H](O)[C@H](O)[C@@H]4O)nn3)cc2)[C@@H](O)[C@@H](O)[C@@H]1O` [Compound 21, ((2R,3S,4R,5S,6R)-2-(Hydroxymethyl)-6-(4-(1-((2S,3S,4S,5S,6R)-3,4,5-trihydroxy-6-(hydroxymethyl)tetrahydro-2H-pyran-2-yl)-1H-1,2,3-triazol-4-yl)phenyl)tetrahydro-2H-pyran-3,4,5-triol)] as the compound, how does the Kd (FimH-CRD; [2]) read?
A: < 5 nM (2×) and 9 nM

Q: `OC[C@H]1O[C@H](c2cc([C@H]3O[C@H](CO)[C@@H](O)[C@H](O)[C@@H]3O)cc(C(F)(F)F)c2)[C@@H](O)[C@@H](O)[C@@H]1O` [Compound 3] was tested. Which Kd (FimH-CRD; [2]) did it give?
A: 0.051 µM and 0.04 µM

Q: `O=C(NCCCCCCCNC(=O)c1cccc([C@H]2O[C@H](CO)[C@@H](O)[C@H](O)[C@@H]2O)c1)c1cccc([C@H]2O[C@H](CO)[C@@H](O)[C@H](O)[C@@H]2O)c1` [Compound 13, (R,R,S,R,S)-N,N′-(Heptane-1,7-diyl)bis(3-((2R,3S,4R,5S,6R)-3,4,5-trihydroxy-6-(hydroxymethyl)tetrahydro-2H-pyran-2-yl)benzamide)] was tested. Which Kd (FimH-CRD; [2]) did it give?
A: 0.017 µM and 0.012 µM

Q: Which Kd (FimH-CRD; [2]) does the source give for `N#Cc1cc(/C=C/C[C@H]2O[C@H](CO)[C@@H](O)[C@H](O)[C@@H]2O)ccc1/C=C/C[C@H]1O[C@H](CO)[C@@H](O)[C@H](O)[C@@H]1O` [Compound 33, (2,5-Bis[(E)-3-[(2R,3S,4R,5S,6R)-3,4,5-trihydroxy-6-(hydroxymethyl)tetrahydropyran-2-yl]prop-1-enyl]benzonitrile)] here?
A: < 0.005 µM

Q: And the Kd (FimH-CRD; [3])?
A: < 0.005 µM

Q: And the IC50 [1]?
A: 0.39 µM

Q: Which Kd (FimH-CRD; [2]) does the source give for `C#CCN(Cc1cn([C@H]2O[C@H](CO)[C@@H](O)[C@H](O)[C@@H]2O)nn1)Cc1cn([C@H]2O[C@H](CO)[C@@H](O)[C@H](O)[C@@H]2O)nn1` [Compound 20] here?
A: 0.058 µM and 0.096 µM

Q: With `OC[C@H]1O[C@H](C/C=C/c2ccc(/C=C/C[C@H]3O[C@H](CO)[C@@H](O)[C@H](O)[C@@H]3O)cc2)[C@@H](O)[C@@H](O)[C@@H]1O` [Compound 24, ((2R,3S,4R,5S,6R)-2-(Hydroxymethyl)-6-[(E)-3-[4-[(E)-3-[(2R,3S,4R,5S,6R)-3,4,5-trihydroxy-6-(hydroxymethyl)tetrahydropyran-2-yl]prop-1-enyl]phenyl]allyl]tetrahydropyran-3,4,5-triol)] as the compound, how does the Kd (FimH-CRD; [2]) read?
A: < 0.005 µM

Q: What about the Kd (FimH-CRD; [3]) of the same compound?
A: < 0.005 µM

Q: And the IC50 [1]?
A: 0.65 µM

Q: Which Kd (FimH-CRD; [2]) does the source give for `OC[C@H]1O[C@H](n2cc(-c3ccc(-c4cn([C@H]5O[C@H](CO)[C@@H](O)[C@H](O)[C@@H]5O)nn4)cc3)nn2)[C@@H](O)[C@@H](O)[C@@H]1O` [Compound 18, ((2R,3S,4S,5S,6S)-2-(Hydroxymethyl)-6-[4-[4-[1-[(2S,3S,4S,5S,6R)-3,4,5-trihydroxy-6-(hydroxymethyl)tetrahydropyran-2-yl]triazol-4-yl]phenyl]triazol-1-yl]tetrahydropyran-3,4,5-triol)] here?
A: 1.06 µM and 1.02 µM

Q: For `OC[C@H]1O[C@H](n2cc(-c3cccc(-c4cn([C@H]5O[C@H](CO)[C@@H](O)[C@H](O)[C@@H]5O)nn4)c3)nn2)[C@@H](O)[C@@H](O)[C@@H]1O` [Compound 19, ((2R,3S,4S,5S,6S)-2-(Hydroxymethyl)-6-[4-[3-[1-[(2S,3S,4S,5S,6R)-3,4,5-trihydroxy-6-(hydroxymethyl)tetrahydropyran-2-yl]triazol-4-yl]phenyl]triazol-1-yl]tetrahydropyran-3,4,5-triol)], which Kd (FimH-CRD; [2]) is on record?
A: 0.006 µM and < 0.005 µM

Q: And the IC50 [1]?
A: 0.43 µM

Q: What does the source list for `COc1cc(/C=C/C[C@H]2O[C@H](CO)[C@@H](O)[C@H](O)[C@@H]2O)c(OC)cc1/C=C/C[C@H]1O[C@H](CO)[C@@H](O)[C@H](O)[C@@H]1O` [Compound 30, ((2R,3S,4R,5S,6R)-2-[(E)-3-[2,5-Dimethoxy-4-[(E)-3-[(2R,3S,4R,5S,6R)-3,4,5-trihydroxy-6-(hydroxymethyl)tetrahydropyran-2-yl]prop-1-enyl]phenyl]allyl]-6-(hydroxymethyl)tetrahydropyran-3,4,5-triol)]?
A: Kd (FimH-CRD; [2]): 0.007 µM and < 0.005 µM; IC50 [1]: 0.3 µM

Q: Which Kd (FimH-CRD; [2]) does the source give for `O=C(C[C@H]1O[C@H](CO)[C@@H](O)[C@H](O)[C@@H]1O)Nc1ccc(NC(=O)C[C@H]2O[C@H](CO)[C@@H](O)[C@H](O)[C@@H]2O)cc1` [Compound 43, (2-[(2R,3S,4R,5S,6R)-3,4,5-Trihydroxy-6-(hydroxymethyl)tetrahydropyran-2-yl]-N-[4-[[2-[(2R,3S,4R,5,6R)-3,4,5-trihydroxy-6-(hydroxymethyl)tetrahydropyran-2-yl]acetyl]amino]phenyl]acetamide)] here?
A: 0.02 µM and 0.027 µM

Q: `COC(=O)c1cc(/C=C/C[C@H]2O[C@H](CO)[C@@H](O)[C@H](O)[C@@H]2O)ccc1/C=C/C[C@H]1O[C@H](CO)[C@@H](O)[C@H](O)[C@@H]1O` [Compound 26, (Methyl 2,5-bis[(E)-3-[(2R,3S,4R,5S,6R)-3,4,5-trihydroxy-6-(hydroxymethyl)tetrahydropyran-2-yl]prop-1-enyl]benzoate)] was tested. Which Kd (FimH-CRD; [2]) did it give?
A: < 0.005 µM

Q: And the Kd (FimH-CRD; [3])?
A: < 0.005 µM

Q: What about the IC50 [1] of the same compound?
A: 0.85 µM

Q: How did the Kd (FimH-CRD; [2]) turn out when `OC[C@H]1O[C@H](Oc2cccc([C@H]3O[C@H](CO)[C@@H](O)[C@H](O)[C@@H]3O)c2)[C@@H](O)[C@@H](O)[C@@H]1O` [Compound 17, ((2R,3S,4R,5S,6R)-2-(Hydroxymethyl)-6-[3-[(2R,3S,4S,5S,6R)-3,4,5-trihydroxy-6-(hydroxymethyl)tetrahydropyran-2-yl]oxyphenyl]tetrahydropyran-3,4,5-triol)] was run?
A: < 0.005 µM and 0.006 µM

Q: `O=C(NCCOCCOCCNC(=O)c1cccc([C@H]2O[C@H](CO)[C@@H](O)[C@H](O)[C@@H]2O)c1)c1cccc([C@H]2O[C@H](CO)[C@@H](O)[C@H](O)[C@@H]2O)c1` [Compound 15, (R,R,S,R,S)-N,N′-((Ethane-1,2-diylbis(oxy))bis(ethane-2,1-diyl))bis(3-((2R,3S,4R,5S,6R)-3,4,5-trihydroxy-6-(hydroxymethyl)tetrahydro-2H-pyran-2-yl)benzamide)] was tested. Which Kd (FimH-CRD; [2]) did it give?
A: 0.011 µM and 0.015 µM

Q: Which Kd (FimH-CRD; [2]) does the source give for `OC[C@H]1O[C@H](c2ccc(-n3cc([C@H]4O[C@H](CO)[C@@H](O)[C@H](O)[C@@H]4O)nn3)cc2)[C@@H](O)[C@@H](O)[C@@H]1O` [Compound 36, ((2R,3S,4R,5S,6R)-2-(Hydroxymethyl)-6-[4-[4-[(2R,3S,4R,5S,6R)-3,4,5-trihydroxy-6-(hydroxymethyl)tetrahydropyran-2-yl]triazol-1-yl]phenyl]tetrahydropyran-3,4,5-triol)] here?
A: 0.006 µM and 0.014 µM and < 0.005 µM

Q: `O=C(NCCCCCCNC(=O)c1cccc([C@H]2O[C@H](CO)[C@@H](O)[C@H](O)[C@@H]2O)c1)c1cccc([C@H]2O[C@H](CO)[C@@H](O)[C@H](O)[C@@H]2O)c1` [Compound 12, (R,R,S,R,S)-N,N′-(Hexane-1,6-diyl)bis(3-((2R,3S,4R,5S,6R)-3,4,5-trihydroxy-6-(hydroxymethyl)tetrahydro-2H-pyran-2-yl)benzamide)] was tested. Which Kd (FimH-CRD; [2]) did it give?
A: 0.014 µM and 0.018 µM

Q: How did the Kd (FimH-CRD; [2]) turn out when `O=C(NCCCCNC(=O)c1cccc([C@H]2O[C@H](CO)[C@@H](O)[C@H](O)[C@@H]2O)c1)c1cccc([C@H]2O[C@H](CO)[C@@H](O)[C@H](O)[C@@H]2O)c1` [Compound 10, (R,R,S,R,S)-N,N′-(Butane-1,4-diyl)bis(3-((2R,3S,4R,5S,6R)-3,4,5-trihydroxy-6-(hydroxymethyl)tetrahydro-2H-pyran-2-yl)benzamide)] was run?
A: 0.009 µM and 0.015 µM

Q: With `O=C(Nc1ccc([C@H]2O[C@H](CO)[C@@H](O)[C@H](O)[C@@H]2O)cc1)c1cccc([C@H]2O[C@H](CO)[C@@H](O)[C@H](O)[C@@H]2O)c1` [Compound 39, (3-[(2R,3S,4R,5S,6R)-3,4,5-Trihydroxy-6-(hydroxymethyl)tetrahydropyran-2-yl]-N-[4-[(2R,3S,4R,5S,6R)-3,4,5-trihydroxy-6-(hydroxymethyl)tetrahydropyran-2-yl]phenyl]benzamide)] as the compound, how does the Kd (FimH-CRD; [2]) read?
A: 0.029 µM and 0.046 µM

Source: patent US11634447B2 (priority 2012, dated 2023)
